# Data: patent US8580835B2, “Solid forms of a microbiocide” (Syngenta Crop Protection, LLC, priority 2007, dated 2013)
# Assays:
# Assay type in all cases: physicochemical
# [1] = thermodynamic stability (DSC, solubility tests and other experiments); details: compared with modification A
# Protocol: (§1) The resulting change of particle sizes could lead to a change of the stability of the formulated suspension.
# Characteristic for modification C is also the thermogram in differential scanning calorimetry (“DSC”) (see FIG. 3). It has an endothermic peak typically in the range from 130° C. to 142° C., but this will depend on purity. For example, crystal modification C in pure form has typically a peak temperature of 141° C. and an endothermic signal typically around 83 J/g. This thermogram is characteristically different from the thermograms of modifications A and B. Modification A has an endothermic peak at about 112° C. and an endothermic signal of 76; modification B has a peak at about 128° C. and a signal of 90 J/g (see PCT/EP2006/00898, FIGS. 5-6). All measurements were carried out on a Metier Toledo 820 DSC in a closed, but not sealed, pan with a heating rate of 10 K/minute. The typical sample quantity is about 5 mg.
# water solubility = details: over relevant temperature ranges; compared with modification A
# Text: as §1
# [2] = storage stability in aqueous suspensions and in solid form under humid conditions; details: aqueous suspensions (such as SC-formulations) and storage in solid form under humid conditions; compared with amorphous material or modification I
compound,measurement,setting,value
"CC(C)C1C2CCC1c1c(NC(=O)c3cn(C)nc3C(F)F)cccc12 (mixture of isomers) [modification C, racemic syn-3-difluoromethyl-1-methyl-1H-pyrazole-4-carboxylic acid (9-isopropyl-1,2,3,4-tetrahydro-1,4-methano-naphthalen-5-yl)-amide]",thermodynamic stability,[1],substantially better thermodynamic stability than modification A
same,water solubility,water solubility,lower than the water solubility of modification A
"CC(C)C1C2CCC1c1c(NC(=O)c3cn(C)nc3C(F)F)cccc12 (mixture of isomers) [monohydrate in form A, racemic anti-3-difluoromethyl-1-methyl-1H-pyrazole-4-carboxylic acid (9-isopropyl-1,2,3,4-tetrahydro-1,4-methano-naphthalen-5-yl)-amide]",storage stability,[2],much more stable under those circumstances compared with amorphous material or with the modification I
